Experiment in all cases: NCI anticancer screen, dose series, 48 h
The test system of assay [1] is HCT-116.
In assay [2] the test system is HL-60.
Assay [3] relates to Hs-578T.
Assay [4] concerns IGROV-1.
The test system of assay [5] is KM12.
Assay [6] concerns MOLT-4.
Assay [7] concerns OVCAR-3.
Assay [8] has as its system PC-3.
The subject of assay [9] is RXF 393.
The subject of assay [10] is SK-MEL-5.
Assay [11] relates to SK-OV-3.
The subject of assay [12] is SNB-75.
Assay [13] relates to U-251.
The test system of assay [14] is HCC 2998.
In assay [15] the test system is HCT-15.
The subject of assay [16] is NCI-H23.
Assay [17] relates to OVCAR-4.
Assay [18] relates to UACC-257.
The subject of assay [19] is NCI-H522.

The values that follow come from ChEMBL document CHEMBL1201862, “PubChem BioAssay data set” (2004).

Molecules are shown by their SMILES.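 Values below derive from 48-hour exposures of cells grown in 96-well plates, with endpoints linearly interpolated between the two concentrations bracketing the appropriate inhibition level. Abbreviation: GI50, concentration required for 50% inhibition of growth.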 Calls of active or inactive are those of the source. Cut-off read from the data, not from the text of the source: active = GI50 up to about 1.1 µM and inactive = higher.

As for `O=C(CN1CCOCC1)c1ccc2c(c1)oc(=O)n2CCN1CCOCC1`, the GI50 in assay [1], in assay [2], in assay [3], in assay [4], in assay [5] and in assay [6] was > 100 µM (inactive) in each case. In addition, the GI50 in [7], in assay [8], in assay [9], in assay [10], in assay [11] and in [12] was > 100 µM (inactive) throughout. Further, the GI50 in assay [13] was > 100 µM (inactive).
With `COc1ccc(C2=C(OC(C)=O)c3cccn3-c3ccc(Cl)cc3S2)cc1`, the GI50 in assay [14] was 5.43 µM (inactive); in assay [15], 3.62 µM; in [2], 1.59 µM (inactive); in assay [4] it was 6.28 µM (inactive); in assay [5] it was 3.63 µM (inactive); in assay [6], 2.34 µM (inactive). In addition, the GI50 was 4.52 µM (inactive) in assay [16]; 6.22 µM (inactive) in [17]; 4.69 µM (inactive) in [8]; 9.44 µM (inactive) in assay [9]; 4.93 µM (inactive) in assay [10]; 6.35 µM (inactive) in [11]. Also, the GI50 in [12] is 3.44 µM (inactive); in [18] it was 4.3 µM (inactive).
With `N#Cc1nc(-c2cnccn2)oc1N`, the GI50 in [1] is > 100 µM (inactive); in [15] it was more than 100 µM; in assay [2], > 100 µM (inactive); in [3], > 100 µM (inactive); in assay [4], > 100 µM (inactive); in [5], > 100 µM (inactive). The GI50 in assay [6], in [8], in [9], in [10], in assay [11] and in assay [12] was > 100 µM (inactive) in each case. For the same compound, the GI50 in [13] and in [18] was > 100 µM (inactive) each time.
As to `CCOCCOC(=O)C1CCC(=O)N1CN(C(C)=O)c1cc(OC)ccc1OC` (stereo not drawn), the GI50 is > 100 µM (inactive) in assay [1]; more than 100 µM in [15]; > 100 µM (inactive) in assay [3]; > 100 µM (inactive) in [4]; > 100 µM (inactive) in [5]; > 100 µM (inactive) in [6]. In addition, the GI50 in assay [16], in [19], in assay [7], in assay [17], in [8] and in [9] was > 100 µM (inactive) throughout. The GI50 in assay [10], in [11], in assay [12], in assay [13] and in assay [18] was > 100 µM (inactive) throughout.
On to `CCCCCCCCCCCCCCCC(=O)OCC1OC(N2C(=O)/C(=N\NC(N)=S)c3ccc([N+](=O)[O-])cc32)C(OC(C)=O)C1OC(C)=O` (stereo not drawn), for which the GI50 is > 100 µM (inactive) in assay [14]; 29 µM (inactive) in assay [1]; 86.1 µM in assay [15]; > 100 µM (inactive) in assay [2]; > 100 µM (inactive) in [4]; 74.1 µM (inactive) in assay [5]. The GI50 in assay [6] was > 100 µM (inactive); in assay [16], > 100 µM (inactive); in assay [19] it was 36.6 µM (inactive); in assay [7] it was 60.3 µM (inactive); in assay [17] it was > 100 µM (inactive); in [9], > 100 µM (inactive). The GI50 in assay [10] is 97.5 µM (inactive); in [11], 48.4 µM (inactive); in assay [12] it was > 100 µM (inactive); in [13], 78 µM (inactive); in [18] it was > 100 µM (inactive).
`CC1(C)C(=O)C(O)=CC2C1=CCC1C2(C)C(=O)CC2(C)C(C(C)(O)C(=O)CC(O)C(C)(C)O)C(O)CC12C` (stereo not drawn): the GI50 in assay [14] is 3.35 µM (inactive); in [1] it was 3.97 µM (inactive); in assay [15], 3.18 µM; in [2], 3.17 µM (inactive); in assay [4], 2.64 µM (inactive); in assay [5] it was 9.14 µM (inactive). Besides, the GI50 is 17.1 µM (inactive) in [6]; 10.9 µM (inactive) in assay [16]; 2.71 µM (inactive) in [19]; 3.28 µM (inactive) in [7]; 2.82 µM (inactive) in assay [17]; 2.56 µM (inactive) in assay [9]. The GI50 in assay [10] is 2.84 µM (inactive); in assay [11], 3.72 µM (inactive); in assay [12], 0.989 µM (active); in assay [13], 2.65 µM (inactive); in assay [18], 3.52 µM (inactive).
As for `O=C1OC(O)c2cc3c(cc21)OCO3` (stereo not drawn), the GI50 in [14] was > 100 µM (inactive); in [1] it was > 100 µM (inactive); in [15], more than 100 µM; in assay [2], > 100 µM (inactive); in [4], > 100 µM (inactive); in assay [5], > 100 µM (inactive). Also, the GI50 in assay [6], in assay [16], in assay [19], in [7], in assay [17] and in [9] was > 100 µM (inactive) each time. The GI50 in [10], in [11], in [12], in [13] and in assay [18] was > 100 µM (inactive) in each case.
In the case of `CCN(CC)c1ccc(Cl)c2c1C(O)(C(C)C)C2(C)C` (stereo not drawn), the GI50 in assay [14] was 14.8 µM (inactive); in [1], 14.1 µM (inactive); in assay [15] it was 14.5 µM; in assay [2], 15.6 µM (inactive); in assay [4] it was 14.7 µM (inactive); in [5] it was 15.1 µM (inactive). The GI50 in assay [6] was 16.5 µM (inactive); in assay [16], 15 µM (inactive); in [19] it was 14.5 µM (inactive); in [7] it was 12.6 µM (inactive); in assay [17], 19 µM (inactive); in assay [9], 16 µM (inactive). In addition, the GI50 in [10] was 15.4 µM (inactive); in [11], 15.6 µM (inactive); in [12], 18 µM (inactive); in assay [13] it was 16.8 µM (inactive); in assay [18] it was 14.5 µM (inactive).
Regarding `C/C=C1\Oc2ccc(OC)cc2S1(=O)=O`, the GI50 in assay [14] was > 100 µM (inactive); in [1] it was > 100 µM (inactive); in assay [15] it was more than 100 µM; in assay [2], > 100 µM (inactive); in assay [4], > 100 µM (inactive); in [5], > 100 µM (inactive). The GI50 in assay [6], in assay [16], in assay [19], in [7], in assay [17] and in assay [9] was > 100 µM (inactive) each time. Besides, the GI50 in assay [10], in assay [11], in assay [12], in [13] and in assay [18] was > 100 µM (inactive) throughout.
